# According to patent US8680120B2, “Indole derivative or pharmaceutically acceptable salt thereof” (Kissei Pharmaceutical Co., Ltd., priority 2009, dated 2014):
# Columns and labels:
# rat EP1 receptor = rat EP1 receptor (Rattus norvegicus (Rat), UniProt P70597); assay: Test for confirmation of EP1 receptor antagonism: inhibition of the prostaglandin E2-induced increase in intracellular calcium concentration in rat EP1 receptor-expressing COS-1 cells; type: cell-based; conditions: Method A: Fluo-4 NW Calcium Assay Kit, FlexStation; prostaglandin E2 10 nM; rat EP1 receptor-expressing COS-1 cells
# Experimental: (1) Preparation of Rat EP1 Expression Vector
# Using Rat Kidney BD Marathon-Ready cDNA (Nippon Becton Dickinson Company, Ltd.) as a template, a forward primer shown in SEQ ID NO. 1, and a reverse primer shown in SEQ ID NO. 2, a first run of PCR was carried out using KOD-Plus-Ver 2.0 (Toyobo Co., Ltd.). Further, using this amplification product as a template, a forward primer shown in SEQ ID NO. 3, and a reverse primer shown in SEQ ID NO. 4, a second run of PCR was carried out in the same manner. The amplification product obtained by the second run of PCR was incorporated into a vector (pcDNA3.1 D/V5-His-TOPO (registered trademark), Invitrogen Japan K. K.). By a conventional method, the vector containing this amplification product was introduced to E. coli (One Shot TOP10 Competent Cells, Invitrogen Corporation) to transform. This transformed E. coli was cultured in an LB agar medium for one day. After the culture, colonies were selected and cultured in an LB liquid medium containing 50 μg/mL of ampicillin. After the culture, the vector was purified using a QIAprep Spin Miniprep Kit (Qiagen K. K.). The base sequence of the insertion site of this vector (SEQ ID NO. 5) was compared with the rat EP1 base sequence (Ptger1) registered as an accession number NM_013100 in well-known database (NCBI), and as a result, they all matched except for a single base. Further, the amino acid sequence translated by the base sequence completely matched the amino acid sequence of the rat EP1 receptor registered as an NCBI accession number NP_037232. Therefore, it was confirmed that the cloned gene sequence was a base sequence of the rat EP1 receptor and the obtained amino acid sequence was that of the rat EP1 receptor. The pcDNA3.1 D/V5-His-TOPO (registered trademark) to which the nucleic acid shown in SEQ ID NO. 5 had been inserted was taken as a rat EP1-expressing vector.
# (2) Preparation of Rat EP1 Receptor-Expressing Cells
# COS-1 cells (Dainippon Sumitomo Pharma Co., Ltd.) were cultured until it reached confluence in an incubator at 37° C. under a 5% CO2 gas condition, using a D-MEM liquid medium (high glucose and L-glutamine contained, Invitrogen Corporation) to which a penicillin-streptomycin solution (Invitrogen Corporation, final concentration: 100 U/mL as benzylpenicillin; 100 μg/mL as streptomycin) as an antibiotic, MEM nonessential amino acids (Invitrogen Corporation, final Concentration: 0.1 mM), and fetal calf serum (Sanko Junyaku Co., Ltd., final concentration: 10%) were added.
# The cells that had reached confluence were stripped with 0.05% trypsin/0.53 mM EDTA 4Na (Invitrogen Japan K. K.) and resuspended in the liquid medium. The resuspended cells were diluted and cultured in the liquid medium at a spread ratio from 1:4 to 1:8.
# The cells that had reached confluence were stripped with 0.05% trypsin/0.53 mM EDTA.4Na, and resuspended in a D-MEM liquid medium (high glucose and L-glutamine contained, Invitrogen Corporation) to which an MEM nonessential amino acid (final concentration: 0.1 mM) and fetal calf serum (final concentration: 10%) were added. In each well of a Poly D-lysine-coated 96-well microplate (BD BioCoat (registered trademark), Nippon Becton Dickinson Company, Ltd.), this resuspended cell suspension culture was prepared to be 5×10^4 cells/well in 100 μL of the liquid medium, and seeded thereon. After seeding, the cells were cultured in an incubator at 37° C. under a 5% CO2 gas condition. At a point when the cells for introduction of a rat EP1-expressing vector were adhered (about 2 hours after seeding), introduction of the rat EP1-expressing vector was carried out in the following order.
# For introduction of the rat EP1-expressing vector, Lipofectamine 2000 (Invitrogen Japan K. K.) was used. […]
# Female SD rats = assay: Inhibitory effect of compound on sulprostone-induced bladder contraction; type: in vivo, rat; conditions: sulprostone 0.3 mg/kg subcutaneously, urethane-anesthetized female SD rats; for Bladder Contraction Inhibition Rate (%) 15 Minutes: 15 minutes after test agent 1.0 mg/kg intravenously; for Bladder Contraction Inhibition Rate (%) 60 Minutes: 60 minutes after test agent 1.0 mg/kg intravenously
# Experimental: Female SD rats were used. Under urethane anesthesia (1.25 g/kg, administered subcutaneously), a tracheal cannula (Size 8, HIBIKI) and a femoral vein cannula for administration (23 G needle-equipped PE50) were inserted thereinto. The bladder cannula (PE50) was inserted from the bladder apex. The bladder cannula was connected to a three-way stopcock, and then, one was connected to a pressure transducer and the other was connected to a syringe filled with saline. Saline was injected to the bladder at an injection rate of 3.6 mL/hour and the bladder contraction pressure was recorded at the time of injection with a recorder (RECTI-HORITZ-8K, NEC Corporation). After 10 minutes from stabilization of the bladder contraction pressure during urination, sulprostone was administered subcutaneously (0.3 mg/kg). Then, at the time point when the bladder contraction pressure became constant, a test agent was administered intravenously (1.0 mg/kg). An average bladder contraction pressure during the 10 minutes period before administration of sulprostone was taken as a baseline (0%). Further, an average bladder contraction pressure during the 10 minutes period before administration of the test agent was taken as a maximum bladder contraction pressure (100%). The average bladder contraction pressures were measured during 5 minutes before and after at 15 minutes and 60 minutes from administration of the test agent. The ratio of this measured value to the maximum bladder contraction pressure was calculated by the following equation and taken as an average bladder contraction rate after administration of the test agent: (Average Bladder Contraction Rate after Administration of Test Agent (%))=(Average Bladder Contraction Pressure after Administration of Test Agent)/(Maximum Bladder Contraction Pressure). In addition, the difference between the maximum bladder contraction rate (100%) and the average bladder contraction rate (%) after administration of the test agent was calculated by the following equation and taken as a bladder contraction inhibition rate of the test agent: (Bladder Contraction Inhibition Rate)=100%−(Average Bladder Contraction Rate after Administration of Test Agent (%)).
# Chain of rat EP1 receptor (P70597 whole entry): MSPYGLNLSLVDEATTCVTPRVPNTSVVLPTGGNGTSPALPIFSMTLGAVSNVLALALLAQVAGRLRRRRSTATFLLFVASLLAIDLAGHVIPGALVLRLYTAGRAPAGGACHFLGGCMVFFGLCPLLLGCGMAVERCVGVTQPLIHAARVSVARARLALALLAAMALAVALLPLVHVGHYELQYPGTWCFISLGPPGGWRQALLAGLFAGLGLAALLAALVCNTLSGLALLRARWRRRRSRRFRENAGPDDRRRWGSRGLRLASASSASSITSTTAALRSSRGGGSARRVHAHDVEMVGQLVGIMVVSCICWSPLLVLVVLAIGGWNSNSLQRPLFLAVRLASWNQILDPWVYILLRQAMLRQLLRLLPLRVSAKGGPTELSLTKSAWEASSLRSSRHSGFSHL
SMILES,IC50 (rat EP1 receptor) [nM],Bladder Contraction Inhibition Rate (%) 15 Minutes (Female SD rats) [%],Bladder Contraction Inhibition Rate (%) 60 Minutes (Female SD rats) [%]
"COc1ccc2c(c1)cc(-c1ccccc1)n2Cc1cccc(C(=O)O)n1 [Example 9-21, 6-(5-methoxy-2-phenylindol-1-ylmethyl)pyridine-2-carboxylic acid]",13,94.5,82.8
COc1cc2cc(-c3ccccc3)n(Cc3cccc(C(=O)O)n3)c2cc1F [Example 16-15],–,85.0,54.9
